Target: T1, TLR4 (Mus musculus, UniProt Q9QUK6)
T1 construct: endogenous in cells; host or cells: RAW 264.7
T1 sequence (Q9QUK6 26-835): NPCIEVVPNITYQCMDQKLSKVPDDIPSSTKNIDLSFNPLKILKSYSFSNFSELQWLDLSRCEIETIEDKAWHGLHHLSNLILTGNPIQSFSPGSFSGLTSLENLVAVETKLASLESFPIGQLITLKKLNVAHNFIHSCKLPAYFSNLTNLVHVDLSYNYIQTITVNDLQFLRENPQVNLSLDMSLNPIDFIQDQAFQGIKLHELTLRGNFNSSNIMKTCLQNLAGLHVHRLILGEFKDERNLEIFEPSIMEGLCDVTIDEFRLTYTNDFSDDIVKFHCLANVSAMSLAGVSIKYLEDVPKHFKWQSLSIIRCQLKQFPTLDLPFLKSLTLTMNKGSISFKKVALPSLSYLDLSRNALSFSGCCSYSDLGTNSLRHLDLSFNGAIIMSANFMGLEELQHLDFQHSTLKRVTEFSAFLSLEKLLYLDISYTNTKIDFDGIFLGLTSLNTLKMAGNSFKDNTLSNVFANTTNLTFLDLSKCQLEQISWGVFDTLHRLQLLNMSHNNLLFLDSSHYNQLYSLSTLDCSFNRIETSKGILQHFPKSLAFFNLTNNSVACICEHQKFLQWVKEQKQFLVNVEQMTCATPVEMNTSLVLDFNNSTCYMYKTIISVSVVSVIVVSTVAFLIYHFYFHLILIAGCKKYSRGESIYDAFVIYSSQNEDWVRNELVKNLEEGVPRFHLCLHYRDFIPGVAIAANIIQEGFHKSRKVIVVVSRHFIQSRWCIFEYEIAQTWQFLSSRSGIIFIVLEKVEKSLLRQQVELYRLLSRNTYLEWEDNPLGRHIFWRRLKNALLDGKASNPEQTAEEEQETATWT
T1 sequence (Q9JHF9 19-160 partner): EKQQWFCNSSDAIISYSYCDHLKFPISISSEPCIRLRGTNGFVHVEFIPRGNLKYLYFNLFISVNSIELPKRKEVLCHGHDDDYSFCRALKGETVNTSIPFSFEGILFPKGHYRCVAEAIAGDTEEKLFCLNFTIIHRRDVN
Assay: TLR4-mediated TNF-α secretion (LPS), ELISA
Type: cell-based, murine
Details: RAW 264.7, 10 or 20 μM
Description: Agonists specific to TLR1/TLR2 (Pam3CSK4), TLR2/TLR6 (FSL-1), TLR3 (Poly I:C), TLR7 (imiquimod), and TLR8 (TL8-506) were purchased from InvivoGen Ltd. (Hong-Kong, China), and a TLR4-specific agonist (LPS from E. coli O111:B4) was purchased from Sigma-Aldrich, Inc. For TLR9-specific stimulation, class C CpG-ODN (ODN2395, 5′-TCGTCGTTTTCGGCGCGCGCCG-3′) having full phosphorothioate backbone modification was synthesized (Bioneer, Inc., Daejeon, Korea). All TLR agonists were dissolved in deionized water and applied to a culture media for TLR activation. The cells were treated with test compounds or a control medium for 1 hour, and then stimulated with a TLR agonist for 4 hours, or 24 hours in the case of poly(I:C), and the cytokine secretion was monitored.
RAW 264.7 or differentiated THP-1 cell lines were seeded onto a 96-well culture plate at a density of 2×10^4 cells/well. The cells were treated with test compounds for 1 hour followed by the stimulation with TLR agonists for 4 hours. The supernatant was transferred to pre-coated assay plates, and the secretion levels of mouse and human TNF-α were measured by respective ELISA kits (Invitrogen, Carlsbad, CA, USA). […] Absorbance was measured by a microplate reader spectrophotometer (Molecular Devices, Inc., San Jose, CA, USA), and data was interpolated from a standard curve using SoftMax Pro 5.3 software (Molecular Devices, Inc.). […]

In the case of COc1ccc(CNc2ncc(-c3ccc4c(c3)OCO4)n2C)c(OC)c1 [TIC10-7, 5-(2H-1,3-benzodioxol-5-yl)-N-[(2,4-dimethoxyphenyl)methyl]-1-methyl-1H-imidazol-2-amine], the “effect on TLR4-mediated cytokine (TNF-α) production” value is reported as “no effect”.

Source: patent US12565475B2, “Small molecule compound inhibiting signal transmission path of TLR7 and TLR9 and use thereof” (AJOU UNIVERSITY INDUSTRY-ACADEMIC COOPERATION FOUNDATION, priority 2019, dated 2026)
